{"source": "patent US12245576B2", "about": "“Method for genetic manipulation of sap-feeding insects” (The Regents of the University of California, priority 2018, dated 2025)", "key": {"[1]": {"tested_on": "leaf-discs", "test": "DMSO spray and dips, tolerance by leaf-discs", "description": "There was no surface sterilization pretreatment; (2) discs were placed on GB+GBV agar plates; (3) disc were sprayed using a Preval Atomizer with 20% DMSO or water (control); (4) some plates were allowed to dry overnight in the hood. […] Plates were covered with two fabric screens. […] Plates were covered with one fabric screen.\n(§1) There was no surface sterilization pretreatment; (2) discs were dipped several times in 20% DMSO, 8% DMSO or water (control). Discs were allowed to dry for a short time in the hood. […] Plates were covered with two fabric screens. […] Plates were covered with one fabric screen."}, "[2]": {"tested_on": "Brassica leaf-discs", "test": "Phytohormone treatment, calli and root production from Brassica leaf-discs", "method": "(§2) • 1. Leaf-discs (2.7-cm in diameter) were cut from Brassica leaves (Leaf #2, leaf #3) or eggplant leaves (see above). • 2. […] The discs were placed in Incubator B (higher humidity, higher light). Plates were covered with two fabric screens. • 4."}, "[3]": {"tested_on": "eggplant leaf-discs", "test": "Phytohormone treatment, root production from eggplant leaf-discs", "method": "as §2"}, "[4]": {"tested_on": "plant-derived fungi", "test": "Surface sterilization of leaves/leaf-discs with EtOH and sodium hypochlorite, control of fungi", "description": "Plates were covered with two fabric screens. […] Plates were covered with one fabric screen."}, "[5]": {"tested_on": "leaf-discs", "experimental": "Protocol 1: Ethanol and sodium hypochlorite: The method comprised the following steps: (1) whole leaves (Leaf 2 or leaf 3) were excised from plants; (2) leaves were dipped in 500 ml of 70% EtOH for 10-20 sec; (3) leaves were immersed in 500 ml of 0.01%, 0.06% or 0.24% NaClO for varying periods of time (1-20 min) with and without agitation of the liquid; (4) leaves were washed three to four times in distilled water (500-ml) each; (5) leaves were patted dry with paper towels; and (6) discs are cut from these pretreated leaves.\nProtocol 2: Ethanol and sodium hypochlorite: The method comprised the following steps: (1) leaf-discs (2.5-cm in diameter) were cut from leaf 2 (11.5-cm long) or leaf 3 from a 6-wk-old plants; (2) Discs were dipped in 500 ml of 70% EtOH for 10-20 sec; (3) Discs were immersed in 500 ml of 0.01%, 0.06% or 0.24% NaClO for varying periods of time (1-20 min) with and without agitation of the liquid; (4) Discs were washed three to four times in distilled water (500-ml) each; (5) Discs were patted dry with paper towels; (6) Discs were placed on GB+GBV agar plates, covered with a mesh lid, sealed with parafilm, and incubated agar side up; (7) In some experiments, GB-GBV plates were initially incubated agar side down to encourage root growth into the media. […]"}, "[6]": {"tested_on": "plant-derived fungi", "test": "DMSO/miconazole dips, control of fungi on leaf-discs", "details": "dipping of leaf-discs in 8% DMSO and 5 μg/ml miconazole", "method": "as §1, with “screen. In most experiments both incubators were used; […].” for “screen.”"}}, "note": "Values joined by “and” are separate entries in the source; they are usually repeats but may differ in a detail not shown here. Equal entries are not always repeated. Where two headings read alike, the source gives them in different places.", "data": [{"compound": "C[S+](C)[O-]", "note": "[DMSO, dimethyl sulfoxide]", "values": [{"measurement": "damage to leaf-discs", "setting": "[1]; dipping into 8% DMSO", "result": "does not cause leaf-disc damage"}, {"measurement": "damage to leaf-discs", "setting": "[1]; dipping into 20% DMSO", "result": "does not cause leaf-disc damage"}, {"measurement": "damage to leaf-discs", "setting": "[1]; direct spraying with 20% DMSO, two types of atomizers", "result": "causes extensive damage"}]}, {"compound": "O=C(O)Cc1cccc2ccccc12", "note": "[NAA, Napthalene Acetic Acid]", "values": [{"measurement": "Roots first detected", "setting": "[2]; 0.1 mg/L NAA", "result": 5, "unit": "days"}, {"measurement": "% plates with calli", "setting": "[2]; 1 mg/L NAA", "result": 67, "unit": "%"}, {"measurement": "roots per site", "setting": "[2]; 1 mg/L NAA, day 4", "result": "1-3 roots per site and 1 roots per site and 1-2 roots per site"}, {"measurement": "roots per site", "setting": "[2]; 1 mg/L NAA, day 5", "result": "1-3 roots per site and 1-2 roots per site"}, {"measurement": "% plates with calli", "setting": "[2]; 10 mg/L NAA", "result": 100, "unit": "%"}, {"measurement": "Calli first day detected", "setting": "[2]; 10 mg/L NAA in GB + GBV, Incubator B", "result": 3, "unit": "days"}, {"measurement": "number of root sites per disc", "setting": "[2]; 10 mg/L NAA, day 4, discs 142B-1 to -3", "result": 1, "unit": "sites"}, {"measurement": "roots per site", "setting": "[2]; 10 mg/L NAA, day 5", "result": "2 per site and 1-3multiple per site and 1-3 per site"}, {"measurement": "plates with roots", "setting": "[2]; NAA 0.1 mg/L, day 5", "result": "⅔"}, {"measurement": "plates with roots", "setting": "[2]; NAA 1 mg/L, by day 4", "result": "all three"}, {"measurement": "plates with roots", "setting": "[2]; NAA 10 mg/L, by day 4", "result": "all three"}, {"measurement": "root sites and roots per site detected", "setting": "[2]; NAA 0.1, 1.0 and 10 mg/L", "result": "Multiple root sites and multiple roots per site"}, {"measurement": "effect on production of roots from Brassica leaf-discs", "setting": "[2]; NAA 0.1, 1.0 and 10 mg/L in GB+GBV", "result": "enhanced and accelerated the production of roots"}, {"measurement": "production of roots from eggplant leaf-discs", "setting": "[3]; NAA 0.1, 1.0 and 10 mg/L, within 5 d", "result": "did not produce of roots"}]}, {"compound": "[Na+].[O-]Cl", "note": "[NaClO, sodium hypochlorite]", "values": [{"measurement": "time for which appearance of fungi is prevented", "setting": "[4]; prewashing intact leaves with 70% EtOH and 0.24% NaClO, then cutting discs", "result": 19, "unit": "days"}, {"measurement": "slowing of first appearance of fungi on agar plates", "setting": "[4]; prewashing leaves or leaf-discs with 70% EtOH and 0.01% NaClO", "result": "1 to 2", "unit": "days"}, {"measurement": "slowing of first appearance of fungi on agar plates", "setting": "[4]; prewashing with 70% EtOH and 0.06% NaClO", "result": "1 to 2", "unit": "days"}, {"measurement": "damage to intact leaves or leaf-discs", "setting": "[5]", "result": "No damage was evident"}]}, {"compound": "Clc1ccc(COC(Cn2ccnc2)c2ccc(Cl)cc2Cl)c(Cl)c1", "note": "(stereo not drawn) [miconazole]", "values": [{"measurement": "slowing of growth of plant-derived fungi", "setting": "[6]", "result": "10 to 12", "unit": "days"}]}, {"compound": "Indole butyric acid [IBA]", "values": [{"measurement": "Calli first day detected", "setting": "[2]", "result": "4 days and 5 days"}, {"measurement": "Roots first detected", "setting": "[2]", "result": 5, "unit": "days"}, {"measurement": "time in which leaf-discs produced roots", "setting": "[2]", "result": "5 to 6", "unit": "days"}, {"measurement": "detection of roots", "setting": "[2]; 1.0 mg/L IBA", "result": "occasionally detected"}, {"measurement": "number of root sites per disc", "setting": "[2]; 2.5 mg/L IBA, day 5", "result": 1, "unit": "site"}, {"measurement": "roots per site", "setting": "[2]; 2.5 mg/L IBA, day 5", "result": 1, "unit": "root"}, {"measurement": "% plates with calli", "setting": "[2]; 5 mg/L IBA", "result": "67% and 100%"}, {"measurement": "Roots first detected", "setting": "[2]; 5 mg/L IBA", "result": 5, "unit": "days"}, {"measurement": "number of root sites per disc", "setting": "[2]; 5 mg/L IBA, day 5", "result": 2, "unit": "sites"}, {"measurement": "roots per site", "setting": "[2]; 5 mg/L IBA, day 5", "result": "3-4 roots per site"}, {"measurement": "% plates with calli", "setting": "[2]; 7.5 mg/L IBA", "result": 100, "unit": "%"}, {"measurement": "Roots first detected", "setting": "[2]; 7.5 mg/L IBA", "result": 6, "unit": "days"}, {"measurement": "% plates with calli", "setting": "[2]; 10 mg/L IBA", "result": 100, "unit": "%"}, {"measurement": "Roots first detected", "setting": "[2]; 10 mg/L IBA", "result": 5, "unit": "days"}, {"measurement": "roots per site", "setting": "[2]; 10 mg/L IBA, day 5", "result": "1-4 roots per site and 1 root per site roots per site"}, {"measurement": "number of root sites per disc", "setting": "[2]; 10 mg/L IBA, day 6", "result": "132B-2 10 sites and 132B-3 15 sites"}, {"measurement": "roots total per disc", "setting": "[2]; 10 mg/L IBA, day 6, disc 132B-1", "result": "> 6d 132B-1 over 41 roots total"}, {"measurement": "% plates with calli", "setting": "[2]; […]", "result": 100, "unit": "%"}, {"measurement": "discs that formed roots", "setting": "[3]", "result": "one"}, {"measurement": "time after which roots formed", "setting": "[3]", "result": 10, "unit": "days"}]}]}
